Patent US9815862B2, “Polymorphs of LNnT” (Glycom A/S, priority 2012, dated 2017)

What was measured:
[1] = Redissolution of the precipitate formed from aqueous LNnT solution; format: physicochemical; conditions: white precipitate from aqueous solution stored at 2-8° C. or room temperature
Procedure: Amorphous spray-dried LNnT (6.0087 g, water content: 2.67%, purity: 99.2% by HPAEC) was dissolved in HPLC water (10.66 ml). Dissolution was reached by shaking. Two samples of 1 ml solution were stored at 2-8° C. (sample 1) and room temperature (sample 2), respectively, for 4 weeks. […] The precipitation was collected by filtration and dried at atmospheric pressure.

[2] = Storage of crystalline polymorph in an open vessel, checked by XRPD; format: physicochemical; conditions: stored in an open vessel at ambient temperature and humidity for a week
Procedure: XRPD investigation of the collected crystals was conducted with a Philips PW 1830/PW 1050 instrument in transmission geometry, using CuKα radiation made monochromatic by means of a graphite monochromator. D-spacings were calculated from the 2Θ values, based on a wavelength of 1.54186 Å. As a general rule the 2Θ values have an error rate of […].

Structure (SMILES) | redissolution of the precipitated crystals [1] | change in XRPD pattern on storage (solid-state stability) [2]
CC(=O)N[C@H]1[C@H](O[C@H]2[C@@H](O)[C@@H](CO)O[C@@H](O[C@H]3[C@H](O)[C@@H](O)C(O)O[C@@H]3CO)[C@@H]2O)O[C@H](CO)[C@@H](O[C@@H]2O[C@H](CO)[C@H](O)[C@H](O)[C@H]2O)[C@@H]1O (mixture of isomers) [LNnT polymorph IV, lacto-N-neotetraose] | can be redissolved only when ultrasonicated for 3 hours at 50 °C | –
CC(=O)N[C@H]1[C@H](O[C@H]2[C@@H](O)[C@@H](CO)O[C@@H](O[C@H]3[C@H](O)[C@@H](O)C(O)O[C@@H]3CO)[C@@H]2O)O[C@H](CO)[C@@H](O[C@@H]2O[C@H](CO)[C@H](O)[C@H](O)[C@H]2O)[C@@H]1O (mixture of isomers) [LNnT polymorph V, lacto-N-neotetraose] | – | no substantial change in its XRPD pattern can be observed
